Test results taken from patent US20150290306A1, “COMPOSITIONS AND METHODS FOR DIAGNOSIS AND TREATMENT OF MALIGNANT GLIOMAS” (priority 2012, published 2015).

Tested on: PBMCs
Assay: PBMC culture with candidate peptides for 14 days, IFN-γ and IL-5 in supernatant by ELISA
Assay type: cell-based, human
Conditions: for IFN-γ/IL-5 ratio (geometric mean): peptide 10 μg/mL; for IFN-γ/IL-5 ratio, recurrent GBM patients compared to primary GBM patients: P<0.05
Description: Measurement of antigen-specific T cell responses in the peripheral blood in humans differs depending on whether responses are high affinity interactions with foreign (viral) epitopes or lower affinity interactions involving recognition of self-antigens. […] Given that T cell responses directed against MAGE and IL-13Rα2 antigens also involve T cells with low affinity to these self-antigens, antigen-specific responses were quantified based on cytokine secretion, as recently described in a phase I study of patients with MS (Viglietta V, et al: Neurology 2008, 71(12):917-924). Cytokine production was quantified by ELISA, defining a positive T cell response for each patient as the amounts of IFN-γ or IL-5 that were >50 pg/mL and two standard deviations above the mean cytokine levels secreted after stimulation of cells from that patient with negative control MBP peptide.
Twenty-five mL of blood from patients or healthy subjects was obtained under an IRB-approved protocol. All samples of blood from patients were taken at the time of surgery. […] All tumor-bearing patients received similar doses of steroids and anti-epileptic medications at the time of tumor debulking surgery prior to obtaining peripheral blood for these studies. T cell responses in patients with meningiomas controlled for influences of steroids on antigen responsiveness and cytokine balance. Tumor tissue was independently confirmed in all cases by formal pathological analysis. PBMCs were purified from heparinized blood by density gradient centrifugation using Ficoll-Hypaque (GE Healthcare Biosciences), and cells were then washed with PBS and viable cells quantified by trypan-blue staining.
Freshly isolated PBMCs were plated at 2×10^5 cells/well in 200 μl of serum-free X-VIVO15 (X15) media (Lonza) in 96-well round-bottom cell culture plates. Candidate peptides, in addition to a negative control peptide derived from MBP were added at a concentration of 10 μg/mL and anti-CD3 mAb was added at a concentration of 1 μg/mL. Six T cell cultures were established for each condition in each subject, and 100 IU/ml of IL-2 was added on the following day. Plates were incubated at 37° C. and 5% CO2 for 14 days, with media changed as needed, and the supernatant was harvested to evaluate T cell responses (cytokines) induced by each condition using ELISA. In a limited number (n=3) of patients, cytokine production was assessed after both 7 and 14 days. […] An IFN-γ ELISPOT assay was performed as previously described (Lv H, Havari E, et al: J Clin Invest, 121(4):1561-1573).
To detect T helper cell responses directed against the candidate peptides, IFN-γ and IL-5 were measured by ELISA using commercially available kits supplied by BD bioscience. IFN-γ was used as a prototypic Th1 cytokine and IL-5 was chosen as a prototypic cytokine released by Th2 cells because unlike IL-4 there would be no potential consumption by antigen-specific T cells in the culture conditions (Kourilsky P, Truffa-Bachi P: Trends Immunol 2001, 22(9):502-509).

Sequence	positive wells among 6 primary T cell responses (IFN-γ or IL-5 ELISA) (Healthy Subject 1)	positive wells among 6 primary T cell responses (IFN-γ or IL-5 ELISA) (Healthy Subject 3)	positive wells among 6 primary T cell responses (IFN-γ or IL-5 ELISA) (Healthy Subject 4)	positive wells among 6 primary T cell responses (IFN-γ or IL-5 ELISA) (Healthy Subject 5)	positive wells among 6 primary T cell responses (IFN-γ or IL-5 ELISA) (Meningioma 6)	positive wells among 6 primary T cell responses (IFN-γ or IL-5 ELISA) (Primary GBM 2)	positive wells among 6 primary T cell responses (IFN-γ or IL-5 ELISA) (Primary GBM 3)	positive wells among 6 primary T cell responses (IFN-γ or IL-5 ELISA) (Primary GBM 4)	positive wells among 6 primary T cell responses (IFN-γ or IL-5 ELISA) (Primary GBM 5)	positive wells among 6 primary T cell responses (IFN-γ or IL-5 ELISA) (Primary GBM 6)	positive wells among 6 primary T cell responses (IFN-γ or IL-5 ELISA) (Primary GBM 7)	positive wells among 6 primary T cell responses (IFN-γ or IL-5 ELISA) (Primary GBM 8)	positive wells among 6 primary T cell responses (IFN-γ or IL-5 ELISA) (Recurrent GBM 1)	positive wells among 6 primary T cell responses (IFN-γ or IL-5 ELISA) (Recurrent GBM 3)	positive wells among 6 primary T cell responses (IFN-γ or IL-5 ELISA) (Recurrent GBM 4)	positive wells among 6 primary T cell responses (IFN-γ or IL-5 ELISA) (Recurrent GBM 5)	IFN-γ/IL-5 ratio (geometric mean) (healthy subjects)	IFN-γ/IL-5 ratio (geometric mean) (patients with primary GBMs)	IFN-γ/IL-5 ratio (geometric mean) (patients with recurrent GBMs)	positive wells among 6 primary T cell responses (IFN-γ or IL-5 ELISA) (Healthy Subject 6)	also measured
KVDELAHFLLRKYRAK [MAGE-A3112-127]	+++ (+++/++++ cell=3-4 positive wells)	++ (+/++ cell=1-2 positive wells)	++ (+/++ cell=1-2 positive wells)	+ (+/++ cell=1-2 positive wells)	+ (+/++ cell=1-2 positive wells)	++ (+/++ cell=1-2 positive wells)	++ (+/++ cell=1-2 positive wells)	+ (+/++ cell=1-2 positive wells)	+++++ (+++++/++++++ cell=5-6 positive wells)	++ (+/++ cell=1-2 positive wells)	+++ (+++/++++ cell=3-4 positive wells)	++++ (+++/++++ cell=3-4 positive wells)	+ (+/++ cell=1-2 positive wells)	++ (+/++ cell=1-2 positive wells)	++ (+/++ cell=1-2 positive wells)	+ (+/++ cell=1-2 positive wells)	4.9	0.2	0.04	–	positive wells among 6 primary T cell responses (IFN-γ or IL-5 ELISA) (Meningioma 5): +++ (+++/++++ cell=3-4 positive wells); positive wells among 6 primary T cell responses (IFN-γ or IL-5 ELISA) (Recurrent GBM 2): + (+/++ cell=1-2 positive wells)
WQYFFPVIFSKASSSLQL [MAGE-A3143-160]	+++ (+++/++++ cell=3-4 positive wells)	+ (+/++ cell=1-2 positive wells)	+++++ (+++++/++++++ cell=5-6 positive wells)	++ (+/++ cell=1-2 positive wells)	+ (+/++ cell=1-2 positive wells)	+++ (+++/++++ cell=3-4 positive wells)	+ (+/++ cell=1-2 positive wells)	+ (+/++ cell=1-2 positive wells)	+ (+/++ cell=1-2 positive wells)	+ (+/++ cell=1-2 positive wells)	++ (+/++ cell=1-2 positive wells)	+++++ (+++++/++++++ cell=5-6 positive wells)	+ (+/++ cell=1-2 positive wells)	+ (+/++ cell=1-2 positive wells)	+ (+/++ cell=1-2 positive wells)	–	4.3	0.3	0.4	+ (+/++ cell=1-2 positive wells)	positive wells among 6 primary T cell responses (IFN-γ or IL-5 ELISA) (Healthy Subject 2): +++ (+++/++++ cell=3-4 positive wells); positive wells among 6 primary T cell responses (IFN-γ or IL-5 ELISA) (Meningioma 4): + (+/++ cell=1-2 positive wells); positive wells among 6 primary T cell responses (IFN-γ or IL-5 ELISA) (Meningioma 7): + (+/++ cell=1-2 positive wells); IFN-γ/IL-5 ratio, recurrent GBM patients compared to primary GBM patients: significantly lower; positive wells among 6 primary T cell responses (IFN-γ or IL-5 ELISA) (Primary GBM 1): ++++ (+++/++++ cell=3-4 positive wells)
LRKYRAKELVTKAEML [MAGE-A3121-136]	+++ (+++/++++ cell=3-4 positive wells)	+++ (+++/++++ cell=3-4 positive wells)	+ (+/++ cell=1-2 positive wells)	+ (+/++ cell=1-2 positive wells)	+ (+/++ cell=1-2 positive wells)	++ (+/++ cell=1-2 positive wells)	++++ (+++/++++ cell=3-4 positive wells)	++ (+/++ cell=1-2 positive wells)	++++ (+++/++++ cell=3-4 positive wells)	++ (+/++ cell=1-2 positive wells)	++++ (+++/++++ cell=3-4 positive wells)	++ (+/++ cell=1-2 positive wells)	++ (+/++ cell=1-2 positive wells)	+ (+/++ cell=1-2 positive wells)	+ (+/++ cell=1-2 positive wells)	+ (+/++ cell=1-2 positive wells)	8.1	0.1	0.06	+ (+/++ cell=1-2 positive wells)	positive wells among 6 primary T cell responses (IFN-γ or IL-5 ELISA) (Healthy Subject 2): + (+/++ cell=1-2 positive wells); positive wells among 6 primary T cell responses (IFN-γ or IL-5 ELISA) (Meningioma 1): + (+/++ cell=1-2 positive wells); positive wells among 6 primary T cell responses (IFN-γ or IL-5 ELISA) (Meningioma 2): +++ (+++/++++ cell=3-4 positive wells); positive wells among 6 primary T cell responses (IFN-γ or IL-5 ELISA) (Primary GBM 1): ++ (+/++ cell=1-2 positive wells)
ILILVIFVTGLLLRK [IL-13Ra2351-365]	+ (+/++ cell=1-2 positive wells)	–	+++++ (+++++/++++++ cell=5-6 positive wells)	++ (+/++ cell=1-2 positive wells)	++++++ (+++++/++++++ cell=5-6 positive wells)	++ (+/++ cell=1-2 positive wells)	++ (+/++ cell=1-2 positive wells)	+++ (+++/++++ cell=3-4 positive wells)	+ (+/++ cell=1-2 positive wells)	–	+++ (+++/++++ cell=3-4 positive wells)	+++++ (+++++/++++++ cell=5-6 positive wells)	++ (+/++ cell=1-2 positive wells)	+ (+/++ cell=1-2 positive wells)	–	++ (+/++ cell=1-2 positive wells)	2.0	0.3	0.05	++ (+/++ cell=1-2 positive wells)	positive wells among 6 primary T cell responses (IFN-γ or IL-5 ELISA) (Meningioma 3): + (+/++ cell=1-2 positive wells); positive wells among 6 primary T cell responses (IFN-γ or IL-5 ELISA) (Meningioma 5): ++ (+/++ cell=1-2 positive wells); IFN-γ/IL-5 ratio, recurrent GBM patients compared to primary GBM patients: significantly lower; positive wells among 6 primary T cell responses (IFN-γ or IL-5 ELISA) (Primary GBM 1): +++ (+++/++++ cell=3-4 positive wells)
